Patent publication US20240382629A1, “HETEROBIVALENT AND HOMOBIVALENT AGENTS TARGETING FIBROBLAST ACTIVATION PROTEIN ALPHA AND/OR PROSTATE-SPECIFIC MEMBRANE ANTIGEN” (The Johns Hopkins University, priority 2021, published 2024)
Several values for one entry are separate records, joined by “and”; a condition that tells them apart may be missing. Equal values may be shown once.

System: U87 tumor
Test: Biodistribution ([^18F]JHU1221823), carrier / specific activity study
Format: in vivo, mouse
Conditions: individual mouse
Excerpt: Biodistribution of Representative Compounds

[1] = + 0.05 nmole carrier, 60 min post injection
[2] = + 0.1 nmole carrier, 60 min post injection
[3] = + 0.25 nmole carrier, 60 min post injection
[4] = NOD/SCID, U87 tumor, Carrier 350 (350 mCi/μmol), 60 min post injection
[5] = NOD/SCID, U87 tumor, Carrier 700, 60 min post injection

N#C[C@@H]1CCCN1C(=O)CNC(=O)c1ccnc2ccc(OCCCNC(=O)CCOCCOCCOCCOCCNC(=O)[C@H](CCCCNC(=O)c3ccc([18F])nc3)NC(=O)CN3CCN(CC(=O)O)CCN(CC(=O)O)CCN(CC(=O)O)CC3)cc12 [[^18F]JHU1221823]
Bladder % ID/g (+ 0.01 nmole carrier): 1.82 % ID/g and 2.18 % ID/g
Blood % ID/g (+ 0.01 nmole carrier): 11.19 % ID/g and 11.39 % ID/g
Brain % ID/g (+ 0.01 nmole carrier): 0.32 % ID/g and 0.28 % ID/g
Fat % ID/g (+ 0.01 nmole carrier): 0.23 % ID/g and 0.44 % ID/g
Femur % ID/g (+ 0.01 nmole carrier): 3.05 % ID/g and 4.01 % ID/g
Heart % ID/g (+ 0.01 nmole carrier): 4.74 % ID/g and 4.50 % ID/g
Kidney % ID/g (+ 0.01 nmole carrier): 2.82 % ID/g and 3.11 % ID/g
Large intestine % ID/g (+ 0.01 nmole carrier): 1.60 % ID/g and 1.63 % ID/g
Liver % ID/g (+ 0.01 nmole carrier): 2.78 % ID/g and 3.40 % ID/g
Lung % ID/g (+ 0.01 nmole carrier): 6.08 % ID/g and 6.21 % ID/g
Muscle % ID/g (+ 0.01 nmole carrier): 2.03 % ID/g and 1.73 % ID/g
Pancreas % ID/g (+ 0.01 nmole carrier): 4.01 % ID/g and 4.14 % ID/g
Salivary gland % ID/g (+ 0.01 nmole carrier): 7.47 % ID/g and 7.48 % ID/g
Small intestine % ID/g (+ 0.01 nmole carrier): 2.22 % ID/g and 2.17 % ID/g
Spleen % ID/g (+ 0.01 nmole carrier): 1.88 % ID/g and 2.13 % ID/g
Stomach % ID/g (+ 0.01 nmole carrier): 1.33 % ID/g and 1.65 % ID/g
Tumor % ID/g (+ 0.01 nmole carrier): 1.88 % ID/g and 2.86 % ID/g
Bladder % ID/g [1]: 6.14 % ID/g and 2.43 % ID/g
Blood % ID/g [1]: 7.42 % ID/g and 7.67 % ID/g
Brain % ID/g [1]: 0.20 % ID/g and 0.21 % ID/g
Fat % ID/g [1]: 0.94 % ID/g and 0.61 % ID/g
Femur % ID/g [1]: 2.83 % ID/g and 3.67 % ID/g
Heart % ID/g [1]: 3.03 % ID/g and 3.04 % ID/g
Kidney % ID/g [1]: 2.02 % ID/g and 2.55 % ID/g
Large intestine % ID/g [1]: 1.48 % ID/g and 1.58 % ID/g
Liver % ID/g [1]: 1.92 % ID/g and 2.34 % ID/g
Lung % ID/g [1]: 4.05 % ID/g and 4.16 % ID/g
Muscle % ID/g [1]: 1.47 % ID/g and 2.20 % ID/g
Pancreas % ID/g [1]: 4.01 % ID/g and 6.69 % ID/g
Salivary gland % ID/g [1]: 10.22 % ID/g and 11.63 % ID/g
Small intestine % ID/g [1]: 1.46 % ID/g and 2.18 % ID/g
Spleen % ID/g [1]: 1.37 % ID/g and 1.62 % ID/g
Stomach % ID/g [1]: 1.07 % ID/g and 1.48 % ID/g
Tumor % ID/g [1]: 2.59 % ID/g and 4.26 % ID/g
Bladder % ID/g [2]: 1.62 % ID/g and 1.87 % ID/g
Blood % ID/g [2]: 3.88 % ID/g and 4.32 % ID/g
Brain % ID/g [2]: 0.08 % ID/g and 0.17 % ID/g
Fat % ID/g [2]: 2.17 % ID/g and 1.13 % ID/g
Femur % ID/g [2]: 3.44 % ID/g and 4.00 % ID/g
Heart % ID/g [2]: 1.80 % ID/g and 1.87 % ID/g
Kidney % ID/g [2]: 2.03 % ID/g and 2.00 % ID/g
Large intestine % ID/g [2]: 2.91 % ID/g and 1.79 % ID/g
Liver % ID/g [2]: 1.01 % ID/g and 1.30 % ID/g
Lung % ID/g [2]: 2.31 % ID/g and 2.83 % ID/g
Muscle % ID/g [2]: 1.69 % ID/g and 2.25 % ID/g
Pancreas % ID/g [2]: 4.18 % ID/g and 5.17 % ID/g
Salivary gland % ID/g [2]: 7.28 % ID/g and 9.35 % ID/g
Small intestine % ID/g [2]: 1.66 % ID/g and 1.63 % ID/g
Spleen % ID/g [2]: 0.91 % ID/g and 1.01 % ID/g
Stomach % ID/g [2]: 0.89 % ID/g and 1.12 % ID/g
Tumor % ID/g [2]: 5.48 % ID/g and 4.73 % ID/g
Bladder % ID/g [3]: 3.04 % ID/g and 1.98 % ID/g
Blood % ID/g [3]: 1.76 % ID/g and 2.03 % ID/g
Brain % ID/g [3]: 0.08 % ID/g
Fat % ID/g [3]: 0.65 % ID/g and 0.37 % ID/g
Femur % ID/g [3]: 3.97 % ID/g and 4.56 % ID/g
Heart % ID/g [3]: 0.91 % ID/g
Kidney % ID/g [3]: 1.70 % ID/g and 2.15 % ID/g
Large intestine % ID/g [3]: 0.62 % ID/g and 0.68 % ID/g
Liver % ID/g [3]: 0.73 % ID/g and 0.77 % ID/g
Lung % ID/g [3]: 1.17 % ID/g and 1.57 % ID/g
Muscle % ID/g [3]: 1.32 % ID/g and 1.19 % ID/g
Pancreas % ID/g [3]: 2.11 % ID/g and 1.42 % ID/g
Salivary gland % ID/g [3]: 3.78 % ID/g and 2.85 % ID/g
Small intestine % ID/g [3]: 0.75 % ID/g and 1.07 % ID/g
Spleen % ID/g [3]: 0.44 % ID/g and 0.48 % ID/g
Stomach % ID/g [3]: 0.61 % ID/g and 0.77 % ID/g
Tumor % ID/g [3]: 3.93 % ID/g and 3.11 % ID/g
Bladder % ID/g [4]: 2.09 % ID/g and 6.57 % ID/g
Blood % ID/g [4]: 3.99 % ID/g and 4.29 % ID/g
Brain % ID/g [4]: 0.10 % ID/g and 0.09 % ID/g
Fat % ID/g [4]: 0.89 % ID/g and 0.82 % ID/g
Femur % ID/g [4]: 3.67 % ID/g and 3.18 % ID/g
Heart % ID/g [4]: 2.25 % ID/g and 2.02 % ID/g
Kidney % ID/g [4]: 2.00 % ID/g and 2.27 % ID/g
Large intestine % ID/g [4]: 2.18 % ID/g and 1.97 % ID/g
Liver % ID/g [4]: 1.71 % ID/g and 1.81 % ID/g
Lung % ID/g [4]: 2.51 % ID/g and 2.98 % ID/g
Muscle % ID/g [4]: 2.02 % ID/g and 2.04 % ID/g
Pancreas % ID/g [4]: 10.66 % ID/g and 9.69 % ID/g
Salivary gland % ID/g [4]: 9.63 % ID/g and 9.35 % ID/g
Small intestine % ID/g [4]: 2.86 % ID/g and 1.91 % ID/g
Spleen % ID/g [4]: 1.60 % ID/g and 1.01 % ID/g
Stomach % ID/g [4]: 1.47 % ID/g
Tumor % ID/g [4]: 8.22 % ID/g and 9.06 % ID/g
Bladder % ID/g [5]: 8.20 % ID/g
Blood % ID/g [5]: 5.82 % ID/g
Brain % ID/g [5]: 0.16 % ID/g
Fat % ID/g [5]: 0.90 % ID/g
Femur % ID/g [5]: 2.41 % ID/g
Heart % ID/g [5]: 3.48 % ID/g
Kidney % ID/g [5]: 2.45 % ID/g
Large intestine % ID/g [5]: 2.26 % ID/g
